From PMC12731232, “Microbial Biotransformation of the Sesquiterpene Carotol: Generation of Hydroxylated Metabolites with Potential Cytotoxic and Target-Specific Binding Activities” (Biomolecules, 2025)
Values after ≈ are worked out from the molar mass of the structure shown.

Tests used:
[1] = tested on: HCT-116 (colon carcinoma); test: MTT cell viability assay, HCT-116; settings: for IC50: Homo sapiens, HCT-116, 24 h, read-out: Cytotoxic activity IC50 ± SD; for Selectivity index (SI): SI = CC50(MRC-5)/IC50(HCT-116)
Description: (§1) The assay was conducted at the Regional Center for Mycology and Biotechnology, Al-Azhar University, Cairo, Egypt.
(§2) Cancer and normal cells were seeded into 96-well plates at a density of 5 × 10^4 cells per well and incubated for 24 h prior to treatment. Test compounds, dissolved in 0.5% DMSO, were added in triplicate at twelve different concentrations. Vehicle controls (media only or media containing 0.5% DMSO) were included. After a 24 h incubation period, cell viability was assessed via the MTT assay.
(§3) Briefly, the media were replaced with 100 µL of fresh RPMI-1640 medium, followed by the addition of 10 µL of a 12 mM MTT stock solution (5 mg/mL in PBS) to each well, including untreated controls. Plates were incubated at 37 °C in a 5% CO2 atmosphere for 4 h. Subsequently, 85 µL of medium was removed from each well, and 50 µL of DMSO was added to dissolve the resulting formazan crystals. The plates were thoroughly mixed and incubated for an additional 10 min at 37 °C. Absorbance was measured at 590 nm using a microplate reader (SunRise, TECAN Inc., Morrisville, NC, USA). Cell viability percentages were calculated, and IC50 values (µM) were determined from dose–response curves using GraphPad Prism 10 software (San Diego, CA, USA) [38].

in vitro = settings: human
Description: as §1, §2, §3

[2] = tested on: HepG-2 (hepatocellular carcinoma); test: MTT cell viability assay, HepG-2; settings: for IC50: Homo sapiens, HepG2, 24 h, read-out: Cytotoxic activity IC50 ± SD; for Selectivity index (SI): SI = CC50(MRC-5)/IC50(HepG-2)
Description: as §1, §2, §3

MCF-7 (breast carcinoma) = test: MTT cell viability assay, MCF-7; settings: for IC50: Homo sapiens, MCF7, 24 h, read-out: Cytotoxic activity IC50 ± SD; for Selectivity index (SI): SI = CC50(MRC-5)/IC50(MCF-7)
Description: as §1, §2, §3

A-549 (lung carcinoma) = test: MTT cell viability assay, A-549; settings: for IC50: Homo sapiens, A549, 24 h, read-out: Cytotoxic activity IC50 ± SD; for Selectivity index (SI): SI = CC50(MRC-5)/IC50(A-549)
Description: as §1, §2, §3

[3] = tested on: green monkey kidney epithelial cells (VERO); design: method as in doi:10.1016/j.indcrop.2016.08.001; settings: cited from earlier work
[4] = tested on: human hypopharyngeal squamous cell carcinoma cells (FaDu); design: method as in doi:10.1016/j.indcrop.2016.08.001; settings: cited from earlier work
[5] = Substrate control stability in sterile fermentation medium; assay type: physicochemical; settings: without microorganisms
Description: Control groups included a substrate control, in which sterile medium containing carotol (5 mg/100 µL DMF) was incubated without microorganisms. […] Culture controls consisted of microorganisms grown under identical conditions to the screening cultures but without carotol. After two weeks of incubation, all cultures were harvested and analyzed by thin-layer chromatography.

[6] = MTT cell viability assay, MRC-5; settings: human, MRC-5 normal lung fibroblasts
Description: as §1, §2, §3

| Compound | IC50 [1] | Selectivity index (SI) [1] | IC50 at 24 h (in vitro) | IC50 [2] | Selectivity index (SI) [2] | IC50 (MCF-7 (breast carcinoma)) | Selectivity index (SI) (MCF-7 (breast carcinoma)) | IC50 (A-549 (lung carcinoma)) | Selectivity index (SI) (A-549 (lung carcinoma)) | IC50 [3] | IC50 [4] | Stability of substrate control ([5]; 5 °C, two weeks) | Stability of substrate control ([5]; room temperature (25–30 °C)) | IC50 at 24 h [6] |
| --- | --- | --- | --- | --- | --- | --- | --- | --- | --- | --- | --- | --- | --- | --- |
| CC(C)C1C(O)CC2(C)CC(O)C3(C)CCC12O3 (stereo not drawn) [CM1, 9α-hydroxydaucol] | 339 ± 15.6 µM | 1.37 | 466 ± 20.3 µM | 221 ± 12.3 µM | 2.11 | 401 ± 20.3 µM | 1.16 | 225 ± 13.4 µM | 2.07 | – | – | – | – | – |
| CC(C)(O)[C@H]1[C@@H](O)C[C@]2(C)C[C@H](O)[C@]3(C)CC[C@]12O3 [CM2, 9α,13-dihydroxydaucol] | 181 ± 9.95 µM | 1.37 | 248 ± 11.2 µM | 154 ± 9.39 µM | 1.60 | 213 ± 13.7 µM | 1.16 | 138 ± 9.2 µM | 1.79 | – | – | – | – | – |
| CC(C)[C@H]1CC[C@]2(C)C[C@H](O)[C@@](C)(O)CC[C@]12O [CM3] | 226 ± 11 µM | 1.40 | 316 ± 15.2 µM | 196 ± 10.6 µM | 1.62 | 242 ± 15.7 µM | 1.31 | 205 ± 10.6 µM | 1.54 | – | – | – | – | – |
| CC1=CC[C@@]2(C)CC[C@H](C(C)C)[C@@]2(O)CC1 [Carotol] | 25.7 ± 0.53 µM | 6.85 | 176 ± 10.9 µM | 52.3 ± 4.23 µM | 3.36 | 68.4 ± 6.04 µM | 2.57 | 28.7 ± 2.75 µM | 6.14 | 39.7 µg/mL (≈ 179 µM) | 38.3 µg/mL (≈ 172 µM) | remained fully stable | slight decomposition | – |
| COc1cccc2c1C(=O)c1c(O)c3c(c(O)c1C2=O)C[C@@](O)(C(=O)CO)C[C@@H]3O[C@H]1C[C@H](N)[C@H](O)[C@H](C)O1 [Doxorubicin, doxorubicin, reference compound] | 2.99 ± 0.22 µM | 14.66 | – | 1.27 ± 0.2 µM | 34.62 | 3.07 ± 0.18 µM | 14.31 | 3.31 ± 0.26 µM | – | – | – | – | – | 44 ± 3.24 µM |
